Tested on: 931267-113-T-J1-PDC KRAS spheroid with HUVEC/MSC, viability
Assay: Anticancer human tumor 931267-113-T-J1-PDC patient-derived colon adenocarcinoma cell line growth inhibition [KRAS2]
Conditions: for IC50: curve of first compound; for viability, T/C: stronger effect = lower value; active means viability on the fitted dose curve at most 10% of control; inactive means the rest
Text: Multicellular complex tumor spheroid response to RAS pathway inhibitors in combination with a targeted agents in patient-derived cell lines with oncogenic KRAS variants from multiple cancer types
A high-throughput screen of multi-cell type tumor spheroids was designed to identify active combinations of targeted small molecules and KRAS pathway inhibitors. Complex spheroids include a stromal component modeled by human endothelial cells (HUVEC) and fibroblasts modeled by human mesenchymal stem cells (MSCs). The concentration ranges selected for each drug and investigational agent were based upon clinically achievable concentrations if the clinical Cmax of the agent was known.
Compounds. The drugs and investigational agents: BI-3406 (NSC825286), BAY-293 (NSC824723), batoprotafib (TNO155; NSC825523), sotorasib (AMG 510; NSC818433), MRTX1257 (NSC819558), elimusertib (BAY 1895344; NSC800525), molibresib (GSK525762; NSC774829), temuterkib (LY3214996; NSC803410), venetoclax (NSC766270), alisertib (NSC759677), olaparib (NSC753686), talazoparib (NSC767125), erdafitinib (NSC781556), ipatasertib (NSC767898), cabozantinib (NSC761068), nintedanib (NSC756659), abemaciclib (NSC768073), docetaxel (NSC628503), trametinib (NSC758246), and sapanisertib (NSC764658) were obtained from the National Cancer Institute (NCI) Developmental Therapeutics Program Chemical Repository. The FDA-approved anticancer drug set is available from the Developmental Therapeutics Program. […] The stock solutions were prepared in dimethyl sulfoxide (DMSO, Sigma-Aldrich, St. Louis, MO, cat. D2650) at 800-fold the tested concentration and stored at -70 degrees C prior to their use. All drugs and investigational agents were tested over a range starting from a high concentration at or near the clinical Cmax and decreasing in half-log increments. If the clinical Cmax for an agent had not been determined, the highest concentration tested was 10 microM.
Cell Culture. All cells were maintained in an incubator at 37 degrees C and 5% CO2 with 95% humidity. The PDC lines were cultured according to standard operating procedures established by the NCI PDMR (https://pdmr.cancer.gov/sops/default.htm). Briefly, all PDCs were thawed and cultured in Matrigel-coated flasks prepared with a working solution of 1X Ham's F-12 nutrient mix, without supplementation (Invitrogen, Waltham, MA, cat. 11765054), 100 U/mL penicillin-streptomycin (Invitrogen, cat. 15140122), and 2.5% Matrigel (Corning Inc., Corning, NY, cat. 354248) for the first three passages. All PDCs were cultured in complete DMEM/F-12 media containing advanced DMEM/F-12 (Invitrogen, cat. 12634028), 4.9% defined fetal bovine serum, heat inactivated (HyClone Laboratories Inc., Logan, UT, cat. SH30070.03HI), 389 ng/mL hydrocortisone (Sigma-Aldrich, cat. H4001), 9.7 ng/mL human EGF recombinant protein (Invitrogen, cat. PHG0313), 23.4 microg/mL adenine (Sigma-Aldrich, cat. A2786), 97.3 U/mL penicillin-streptomycin (Invitrogen, cat. 15140122), 1.9 mM L-glutamine (Invitrogen, cat. 25030081), and 9.7 microM Y-27632 dihydrochloride (Tocris Bioscience, Bristol, United Kingdom, cat. 1254). The PDCs were cultured in complete DMEM/F12 media without 9.7 microM Y-27632 dihydrochloride for at least two passages prior to the screen. The established cell line HOP-62 was cultured in RPMI 1640 medium, HEPES (Invitrogen, cat. 22400105) with 10% defined fetal bovine serum (HyClone Laboratories Inc., cat. SH30070.03) and 2 mM L-glutamine (Invitrogen, cat. 25030081). The pooled donor HUVEC were cultured in endothelial cell growth medium 2 (PromoCell, Heidelberg, Germany, cat. C-22011) and the hMSC were cultured in mesenchymal stem cell growth medium 2 (PromoCell, cat. C-28009). For all experiments, HUVEC and hMSC were used at passages </=5, while the malignant cell lines were used at passages </=15. […]

[1] = second compound 0.1 µM, first compound 0.0316 µM
[2] = second compound 0.1 µM, first compound 0.1 µM
[3] = second compound 0.1 µM, first compound 0.316 µM
[4] = second compound 0.1 µM, first compound 1 µM
[5] = second compound 0.1 µM, first compound 3.16 µM
[6] = second compound 0.1 µM, first compound 10 µM
[7] = second compound 0.316 µM, first compound 0.0316 µM
[8] = second compound 0.316 µM, first compound 0.1 µM
[9] = second compound 0.316 µM, first compound 0.316 µM
[10] = second compound 0.316 µM, first compound 1 µM
[11] = second compound 0.316 µM, first compound 3.16 µM
[12] = second compound 0.316 µM, first compound 10 µM
[13] = second compound 1 µM, first compound 0.0316 µM
[14] = second compound 1 µM, first compound 0.1 µM
[15] = second compound 1 µM, first compound 0.316 µM
[16] = second compound 1 µM, first compound 1 µM
[17] = second compound 1 µM, first compound 3.16 µM
[18] = second compound 1 µM, first compound 10 µM
[19] = second compound 3.16 µM, first compound 0.0316 µM
[20] = second compound 3.16 µM, first compound 0.1 µM
[21] = second compound 3.16 µM, first compound 0.316 µM
[22] = second compound 3.16 µM, first compound 1 µM
[23] = second compound 3.16 µM, first compound 3.16 µM
[24] = second compound 3.16 µM, first compound 10 µM
[25] = second compound 10 µM, first compound 0.0316 µM
[26] = second compound 10 µM, first compound 0.1 µM
[27] = second compound 10 µM, first compound 0.316 µM
[28] = second compound 10 µM, first compound 1 µM
[29] = second compound 10 µM, first compound 3.16 µM
[30] = second compound 10 µM, first compound 10 µM
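Further: compound exposure lasted 7 days before the readout.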

CCNC(=O)CC1N=C(c2ccc(Cl)cc2)c2cc(OC)ccc2-n2c(C)nnc21 (stereo not given) + CNCc1ccccc1-c1csc(C(C)Nc2nc(C)nc3cc(OC)c(OC)cc23)c1
active: viability, T/C [19] 0.1% | viability, T/C [20] 0.1% | viability, T/C [21] 0.08% | viability, T/C [22] 0.08% | viability, T/C [23] 0.07% | viability, T/C [24] 0.16% | viability, T/C [25] 0.15% | viability, T/C [26] 0.46% | viability, T/C [27] 0.12% | viability, T/C [28] 0.12% | viability, T/C [29] 0.12% | viability, T/C [30] 0.2%
170 nM: IC50 (second compound 1 µM)
inactive: viability, T/C [1] 96.5% | viability, T/C [2] 109% | viability, T/C [3] 63.5% | viability, T/C [4] 54.9% | viability, T/C [5] 46.4% | viability, T/C [6] 37.3% | viability, T/C [7] 75.7% | viability, T/C [8] 75.2% | viability, T/C [9] 42% | viability, T/C [10] 45.7% | viability, T/C [11] 30.8% | viability, T/C [12] 30.9% | viability, T/C [13] 64.4% | viability, T/C [14] 53% | viability, T/C [15] 43.6% | viability, T/C [16] 36.7% | viability, T/C [17] 31% | viability, T/C [18] 18.1%
< 31.6 nM: IC50 (second compound 3.16 µM) | IC50 (second compound 10 µM)
240 nM: IC50 (second compound 0.316 µM)
775 nM: IC50 (second compound 0.1 µM)

CCNC(=O)CC1N=C(c2ccc(Cl)cc2)c2cc(OC)ccc2-n2c(C)nnc21 (stereo not given) + COc1cc2nc(C)nc(NC(C)c3cc(N)cc(C(F)(F)F)c3)c2cc1OC1CCOC1
< 31.6 nM: IC50 (second compound 10 µM)
711 nM: IC50 (second compound 0.316 µM)
inactive: viability, T/C [1] 81.1% | viability, T/C [2] 73.4% | viability, T/C [3] 58.7% | viability, T/C [4] 63.5% | viability, T/C [5] 41.7% | viability, T/C [6] 31.9% | viability, T/C [7] 78.1% | viability, T/C [8] 62.4% | viability, T/C [9] 75.9% | viability, T/C [10] 40.7% | viability, T/C [11] 31.4% | viability, T/C [12] 26.6% | viability, T/C [13] 66.1% | viability, T/C [14] 76.3% | viability, T/C [15] 59.1% | viability, T/C [16] 42.1% | viability, T/C [17] 30.8% | viability, T/C [18] 22.4% | viability, T/C [19] 59.5% | viability, T/C [20] 64.7% | viability, T/C [21] 62.4% | viability, T/C [22] 32.5% | viability, T/C [23] 23.2% | viability, T/C [24] 22%
active: viability, T/C [25] 2.75% | viability, T/C [26] 3.6% | viability, T/C [27] 1.18% | viability, T/C [28] 0.76% | viability, T/C [29] 0.92% | viability, T/C [30] 0.42%
634 nM: IC50 (second compound 1 µM)
1760 nM: IC50 (second compound 0.1 µM)
506 nM: IC50 (second compound 3.16 µM)
